Assay results as given in PMC8767159, “Multiparameter Optimization of Trypanocidal Cruzain Inhibitors With In Vivo Activity and Favorable Pharmacokinetics” (Frontiers in Pharmacology, 2022).

Assays:
[1] = test system: T. cruzi intracellular amastigotes; test: Assay against T. cruzi intracellular amastigotes (Tulahuen lacZ strain in HFF-1 fibroblasts); assay type: cell-based, Trypanosoma cruzi; conditions: Trypanosoma cruzi, HFF-1, 120 h, Table 3, 120 h, mean ± SD of three assays
Description: Biological assays against T. cruzi intracellular amastigotes were performed as reported previously using the T. cruzi Tulahuen strain, which is genetically engineered to express the E. coli β-galactosidase gene lacZ ([Buckner et al., 1996]). β-Galactosidase catalyzes a colorimetric reaction with chlorophenol red β-D-galactopyranoside (CPRG, Sigma Chemical Co., St. Louis, MO) as the substrate. The assays were conducted in 96-well tissue culture plates, and the compounds to be tested were prepared in 100% DMSO. Epimastigotes were maintained in liver infusion tryptone (LIT) enriched with 10% fetal calf serum (FCS), streptomycin, and penicillin at 28°C. Epimastigotes were converted to trypomastigotes by incubation in Grace’s insect medium (Sigma–Aldrich, St. Louis, MO) enriched with 10% FCS at 28°C. Human HFF-1 fibroblasts were seeded at 2 × 10^3/well in 80 μl of RPMI 1640 without phenol red and incubated overnight at 37°C and 5% CO2. Trypomastigotes were seeded at 1.0 × 10^4/well in 20 μl of RPMI 1640, and the plates were incubated at 37°C and 5% CO2. The next day, the synthesized compounds were added (50 μl) in 3-fold serial dilutions at concentrations ranging from 0.4 to 300 μM, and the plates were incubated at 37°C and 5% CO2. Each compound concentration was assayed in triplicate. After 120 h, 50 μl of chlorophenol red β-D-galactopyranoside (CPRG, Sigma–Aldrich) and IGEPAL CA-630 (Sigma–Aldrich) at a final concentration of 0.1% were added. The absorbance was measured at a wavelength of 570 nm in an automated microplate reader. The data were transferred to SigmaPlot 10.0 (Systat Software Inc., Erkrath, Germany) to determine the IC50 values. Benznidazole (BZ, Sigma–Aldrich) was used as a positive control, and untreated wells (100% parasite growth) were used as negative controls in all plates. All compounds were tested in three independent assays.

rhodesain = rhodesain (Trypanosoma brucei rhodesiense, UniProt Q95PM0); test: Rhodesain fluorescence-based inhibition assay (Z-FR-AMC); assay type: biochemical; conditions: Table S3; compound 100 µM
Description: Rhodesain activity was measured using a fluorescence-based assay as previously described ([Fonseca et al., 2015]). The cleavage rates of the fluorogenic substrate Z-Phe-Arg-aminomethyl coumarin (Z-FR-AMC) were monitored at wavelengths of 340 nm for excitation and 440 nm for emission. All assays were performed in triplicate in a 0.1 M sodium acetate buffer, pH 5.5, with 1 mM beta-mercaptoethanol and 0.01% Triton X-100. The final concentration of rhodesain was 3 nM, and the substrate concentration was 2.5 μM. The cleavage of the substrate was followed by continuous reading for 5 min, and enzyme activity in the presence of 100 μM of each potential inhibitor was calculated based on initial velocity rates compared to DMSO controls. All compounds were tested in triplicate in three independent experiments.

cruzain = target: T1, cruzain (Trypanosoma cruzi, UniProt P25779); test: Cruzain enzyme inhibition assay (cleavage of fluorogenic substrate Z-FR-AMC); assay type: biochemical
T1 construct: made in house; host or cells: Escherichia coli (strain M15)
Description: Pro-cruzain truncated at the C-terminus was expressed and purified using a previously described protocol ([Ferreira et al., 2019]). Escherichia coli (strain M15) cultures were grown overnight at 37°C and 200 rpm in Luria Bertani (LB) medium supplemented with ampicillin (100 μg/ml) and kanamycin (50 μg/ml). Next, the cultures were diluted 10-fold in fresh LB medium supplemented with 0.5 M NaCl, 0.2% glucose, 1 mM betaine, 0.5 M sorbitol, 100 μg/ml ampicillin, and 50 μg/ml kanamycin and incubated at 37°C and 200 rpm. At an optical density (OD600) of 0.9, the cultures were incubated at 47°C for 20 min to promote the expression of chaperones. Then, the expression of cruzain was induced by adding isopropyl β-D-thiogalactopyranoside (IPTG) to a final concentration of 0.2 mM, which was followed by overnight incubation of the cultures at 20°C and 200 rpm. Next, the cultures were centrifuged (5,000 rpm, 30 min, 4°C), and the cells were suspended in 50 ml of lysis buffer (300 mM NaCl, 50 mM Tris-HCl, and 1.6 mg/ml lysozyme, pH 8.0) per liter of culture and lysed by sonication (12 cycles of 30 s). This cell lysate was centrifuged (9,000 rpm, 30 min, 4°C), and the supernatant was collected. Cruzain was precipitated by incubation with 35% ammonium sulfate (2 h), and this suspension was centrifuged at 9,000 rpm for 30 min at 4°C. The precipitated cruzain was resuspended in lysis buffer, and the sample was dialyzed to eliminate ammonium sulfate. The soluble fraction of the dialysate was loaded on a Ni−NTA column (Qiagen, Hilden, Germany), and the contaminants were washed using washing buffer (300 mM NaCl, 50 mM Tris-HCl, and 10 mM imidazole, pH 8.0). Cruzain was eluted by applying an increasing imidazole gradient: 25, 50, 75, 100, and 250 mM. The fractions containing cruzain were pooled together and dialyzed against 1.5 L of 0.1 M acetate buffer, pH 5.5, and then concentrated to 0.5 mg/ml. Pro-cruzain was activated by incubation with activation buffer (100 mM sodium acetate, pH 5.5, 10 mM EDTA, 5 mM DTT, and 1 M NaCl) at 37°C. […] After activation, the enzyme was diluted 20-fold in binding buffer (20 mM sodium phosphate and 150 mM NaCl, pH 7.2) and added to thiopropyl Sepharose 6B resin (GE Healthcare Life Sciences, Pittsburgh, PA). After overnight incubation at 4°C, the resin was loaded on a column, and cruzain was eluted with binding buffer supplemented with 20 mM DTT. Fractions containing cruzain were pooled together and stored in 0.1 M sodium acetate, pH 5.5, at −80°C.
Cruzain activity was followed by monitoring the cleavage of the fluorogenic substrate Z-Phe-Arg-aminomethyl coumarin (Z-FR-AMC), as previously described ([Ferreira et al., 2019]), using 96-well flat-bottom black plates and wavelengths of 355 nm for excitation and 460 nm for emission. All cruzain assays were performed in 0.1 M sodium acetate buffer with 5 mM dithiothreitol (DTT) and 0.01% Triton X-100, pH 5.5. […] The cleavage of the substrate was monitored for 5 min, and the activity was calculated based on the initial reaction rates compared with the rate of a DMSO control at 30°C. The IC50 values were independently calculated by considering the rate measurements for at least six inhibitor concentrations, each evaluated in triplicate. To determine the mechanism of cruzain inhibition, eight concentrations of the substrate Z-FR-AMC and four concentrations of the inhibitor were employed, each in triplicate. Kinetic parameters were determined using the SigmaPlot (Systat Software Inc., Erkrath, Germany) enzyme kinetics module. Compounds were tested in two or three independent experiments. All enzyme assays were performed using varying Triton X-100 concentrations (0, 0.01, and 0.1%) ([Ferreira et al., 2009]). Compound concentrations were 100 μM in the single-dose percentage inhibition assays.

[2] = Parallel artificial membrane permeability assay (PAMPA); assay type: in vitro ADME; conditions: PAMPA, Table 3; donor pH 6.5, acceptor pH 7.4, 5 h
Description: The permeability of the compounds was assessed using the PAMPA method ([Yu et al., 2015]). The test compounds were dissolved in DMSO to a concentration of 5 mM. Next, the compounds were diluted in a stock plate in saline phosphate buffer (PBS), pH 6.5, containing 1% DMSO to a concentration of 1 µM. Then, 300 µl of each test compound was added to the donor plate. Afterward, 200 µl of PBS buffer, pH 7.4, was added to the acceptor plate. The donor plate was attached to the acceptor plate. The assembled acceptor-donor plate was then incubated at 37°C for 5 h under gentle agitation. To analyze the concentration of the compounds by mass spectrometry, two analysis plates (one for the donor and another for the acceptor plate) containing 300 μl of MEOH:ACN 50:50 were prepared. To the donor analysis plate, 90 µl of PBS, pH 6.5, and 10 µl of the content of the donor plate were added. For the acceptor analysis plate, 100 µl of the content of the acceptor plate was added. To monitor any potential decomposition/intrinsic instability of the test compounds in solution, samples from the stock plate were subjected to LC-MS/MS. The compounds that presented Pe ≥ 1.5 × 10^−6 cm/s were classified as permeable, while compounds that presented Pe < 1.5 × 10^−6 cm/s were considered poorly permeable or nonpermeable.

T1 sequence (P25779 123-337 limits assumed): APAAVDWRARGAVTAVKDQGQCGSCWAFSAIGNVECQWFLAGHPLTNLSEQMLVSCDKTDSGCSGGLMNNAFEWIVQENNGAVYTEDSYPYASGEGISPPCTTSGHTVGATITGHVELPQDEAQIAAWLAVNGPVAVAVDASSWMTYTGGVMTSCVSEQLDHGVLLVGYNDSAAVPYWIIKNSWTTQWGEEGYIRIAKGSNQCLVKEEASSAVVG
rhodesain, sequence (Q95PM0 entry or part of it): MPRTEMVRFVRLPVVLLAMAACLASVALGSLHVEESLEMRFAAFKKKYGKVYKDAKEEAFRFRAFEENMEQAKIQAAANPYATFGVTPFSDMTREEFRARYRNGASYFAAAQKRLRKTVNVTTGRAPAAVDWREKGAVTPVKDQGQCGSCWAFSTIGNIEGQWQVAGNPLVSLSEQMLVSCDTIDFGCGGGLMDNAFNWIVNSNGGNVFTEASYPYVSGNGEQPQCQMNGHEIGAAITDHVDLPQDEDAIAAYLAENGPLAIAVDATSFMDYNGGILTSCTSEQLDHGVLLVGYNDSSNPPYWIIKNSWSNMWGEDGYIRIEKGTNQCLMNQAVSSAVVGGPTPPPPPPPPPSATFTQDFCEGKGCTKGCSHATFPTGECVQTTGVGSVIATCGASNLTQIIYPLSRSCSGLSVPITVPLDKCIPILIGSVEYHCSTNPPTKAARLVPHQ

O=C(COc1ccc2cc(C(=O)O)ccc2c1)NCCc1nc2ccccc2[nH]1 [Compound 13]
IC50 [1]: > 50 µM
inhibition at 100 µM (rhodesain): 54%
IC50 (cruzain; 1.5 nM cruzain, 5.0 µM Z-FR-AMC, mean ± SD of 2–3 assays, read-out: IC50 (µM) against cruzain): 24.2 ± 4.5 µM
inhibition at 100 µM (cruzain; compound 100 µM, mean of three measures): 89%
Papp at 5 h, 1 µM [2]: 0.83 ×10⁻⁶ cm/s
